Results as given in patent US6197774A, “Pyrimidine derivative” (Otsuka Pharmaceutical Co., Ltd., priority 1997, dated 2001).

Columns and labels:
[1] = Toxicity of compound against the cell strain RAW 264.7 (MTT); format: cell-based; settings: mouse, raw 264.7 cells, 1 × 10^-6 M, read-out: Ratio of optical absorbance
Procedure: [Toxicity test (Toxicity of compound against the cell strain RAW 264.7)]
Test was conducted in accordance with the method as described in J. Immunol. Methods, Vol. 94, pp. 57-68, (1986). Cell strain RAW 264.7 derived from the macrophage of mouse was incubated similarly as in the method of Test Example 1(1). After that, MTT reagent (5 mg/ml) in 1/10 amount of the culture medium was added to the cells, and incubated for 4 hours. The supernatant of culture medium was taken off, then the cells were collected by using 1% SDS solution and the optical absorbance at 570-630 nm of the SDS solution was measured.

contact hypersensitivity = assay: Contact hypersensitivity model in mouse (atopic dermatitis model); format: in vivo; settings: po, 2 mg/Kg p.o., 30 minutes before causal induction, 24 hours, read-out: Control % (intumescence of the pinna, untreated = 100)
Procedure: [Contact hypersensitivity model in mouse (Atopic dermatisis model)]
Test was conducted by referring to the method as described in "HIFU (a Japanese journal of dermatology)" Vol. 35, Supplemental Issue No. 15, pp. 96-106, published on March 1993.
CBA/J strain mice of 6-8 week age were used as the test animals (6-8 mice in one group). The mouse was sensitized by coating 150 μl of 5% of picryl chloride [dissolved in a mixture of acetone with olive oil (1:4)] on the shaved portion of skin in the back of mouse. […] 24 Hours after the causal induction, the effect for inhibiting contact hypersensitivity performed by the test compounds were evaluated by referring to the action for inhibiting intumescence of the pinna as an indication. The test compound was orally administered 30 minutes before the causal induction.
The following compounds were used for the test.
1) Compounds of the Present Invention:
(Dosage: 20 mg/Kg p.o., which is 7-10 times larger amount of dosages for compounds of the present invention)
The value obtained from the sensitization test without administration of the test compound was referred to as 100, and by comparing with the values obtained from the sensitization test with administration of the test compound was referred to "% control" values.

`COCc1cc(=O)n2ncc(-c3ccc(Sc4ccccc4)cc3)c2[nH]1` [Example 1, 4,7-dihydro-5-methoxymethyl-7-oxo-3-(4-phenylthiophenyl)pyrazolo[1,5-a]pyrimidine] showed a viability at 1 µM [1] of 109% and a response vs control in vivo at 2 mg/kg (contact hypersensitivity) of 53.7%.
